According to patent publication US7868037B2 (PTC Therapeutics, Inc., priority 2004, dated 2011):
Where two headings read alike, the source gives them in different places.

Key:
HCV replicon = test: microbe, parasite or virus in culture; type: cell-based, hepatitis C virus
[1] = Hepatitis C virus, read-out: Replicon IC50 μM

Compound	IC50 (HCV replicon; [1])	melting point	also measured
COC(=O)c1cccc(-c2noc(-c3[nH]c4cc(OC)ccc4c3C#N)n2)c1 [Compound 226, methyl 3-[5-(3-cyano-6-methoxy-1H-indol-2-yl)-[1,2,4]oxadiazol-3-yl]benzoate]	> 2 µM	294 to 295 °C	
CCn1c(C#Cc2ccc(NS(C)(=O)=O)cc2)c(C#N)c2ccc(OC)cc21 [Compound 130, N-[4-(3-cyano-1-ethyl-6-methoxy-1H-indol-2-ylethynyl)-phenyl]-methanesulfonamide]	< 0.5 µM	227 to 233 °C	
COc1ccc(-n2cc(C#N)c3cc4c(cc32)OCO4)cc1 [Compound 44, 5-(4-methoxyphenyl)-5H-[1,3]dioxolo[4,5-f]indole-7-carbonitrile]	> 2 µM		
CC(C)NC(=O)Nc1ccc(-c2c(C#N)c3ccc(OCCCn4cncn4)cc3n2C2CCC2)cc1 [Compound 1314, 1-{4-[3-cyano-1-cyclobutyl-6-(3-[1,2,4]triazol-1-yl-propoxy)-1H-indol-2-yl]-phenyl}-3-isopropyl-urea]		88 to 90 °C	
CCOC(=O)CNC(=O)Nc1ccc(-c2c(C#N)c3ccc(OCC)cc3n2CC)cc1 [Compound 773, ethyl {3-[4-(3-cyano-6-ethoxy-1-ethyl-1H-indol-2-yl)-phenyl]-ureido}-acetate]	0.5 to 2 µM	191 to 193 °C	
CCOc1ccc2c(C(=O)N(C)C)c(-c3ccc(N4C(=O)C(C)N(C)C4=O)cc3)n(CC)c2c1 (stereo not shown) [Compound 780, N,N-Dimethyl-2-[4-(3,4-dimethyl-2,5-dioxo-imidazolidin-1-yl)-phenyl]-6-ethoxy-1-ethyl-1H-indole-3-carboxamide]	0.5 to 2 µM	219 to 220 °C	
CCn1c(-c2ccc(OCCOC)cc2)c(C#N)c2ccc(OC)cc21 [Compound 248, 1-ethyl-6-methoxy-2-[4-(2-methoxyethoxy)-phenyl]-1H-indole-3-carbonitrile]	0.5 to 2 µM	117 to 121 °C	
CCn1c(-c2ccc(NS(=O)(=O)CCN3CCOCC3)cc2)c(C#N)c2ccc(OC)cc21 [Compound 653, 2-morpholin-4-yl-ethanesulfonic acid [4-(3-cyano-1-ethyl-6-methoxy-1H-indol-2-yl)-phenyl]amide]	> 2 µM		
CC(C)OC(=O)Nc1ccc(-c2c(C#N)c3ccc(OCCn4cncn4)cc3n2C2CCC2)cc1 [Compound 1276, {4-[3-cyano-1-cyclobutyl-6-(2-[1,2,4]triazol-1-yl-ethoxy)-1H-indol-2-yl]-phenyl}-carbamic acid isopropyl ester]		214 °C	
CCn1c(-c2ccc(N3CCCS3(=O)=O)cc2)c(C#N)c2ccc(OC3CC3)cc21 [Compound 1046, 6-cyclopropoxy-2-[4-(1,1-dioxo-1λ^6-isothiazolidin-2-yl)-phenyl]-1-ethyl-1H-indole-3-carbonitrile]		232 to 234 °C	
CCn1c(-c2ccc(OCCNC=O)cc2)c(C#N)c2ccc(OC)cc21 [Compound 280, N-{2-[4-(3-cyano-1-ethyl-6-methoxy-1H-indol-2-yl)-phenoxy]ethyl}formamide]	> 2 µM	89 to 95 °C	
CCn1c(-c2ccc([N+](=O)[O-])cc2)c(C#N)c2cc(CN3CCOCC3)c(OC)cc21 [Compound 845, 1-ethyl-6-methoxy-5-morpholin-4-ylmethyl-2-(4-nitro-phenyl)-1H-indole-3-carbonitrile]	> 2 µM		
CCNC(=O)Nc1ccc2c(C#N)c(-c3ccc(OCC)cc3)n(CC)c2c1 [Compound 839, 1-[3-cyano-2-(4-ethoxyphenyl)-1-ethyl-1H-indol-6-yl]-3-ethyl-urea]	> 2 µM	249 to 250 °C	
CC(OC(=O)Nc1ccc(-c2c(C#N)c3ccc(OCCn4cncn4)cc3n2C2CCC2)cc1)C1CC1 (stereo not shown) [Compound 1329, {4-[3-cyano-1-cyclobutyl-6-(2-[1,2,4]triazol-1-yl-ethoxy)-1H-indol-2-yl]-phenyl}-carbamic acid 1-cyclopropyl-ethyl ester]		98 °C	
CCn1c(-c2ccc([N+](=O)[O-])cc2)c(C#N)c2cc(C(C)=O)c(OC)cc21 [Compound 844, 5-acetyl-1-ethyl-6-methoxy-2-(4-nitro-phenyl)-1H-indole-3-carbonitrile]	> 2 µM		
CCn1c(-c2ccc3oc(=O)[nH]c3c2)c(C#N)c2ccc(OC)cc21 [Compound 332, 1-ethyl-6-methoxy-2-(2-oxo-2,3-dihydro-benzooxazol-5-yl)-1H-indole-3-carbonitrile]	> 2 µM		
CCn1c(-c2ccc(NC(=O)C3CC3)cc2)c(C#N)c2cc(OC)ccc21 [Compound 244]			IC50 (HCV replicon; read-out: Replicon IC50): 0.5 to 2 µM
CCn1cc(-c2ccon2)c2ccc(OC)cc21 [Compound 57, 1-ethyl-3-isoxazol-3-yl-6-methoxy-1-H-indole]			IC50 (HCV replicon; read-out: Replicon IC50): > 2 µM
CCNc1ccc(-c2c(C#N)c3ccc(OCC)cc3n2C2CCC2)cc1 [Compound 1239, 1-cyclobutyl-6-ethoxy-2-(4-ethylaminophenyl)-1H-indole-3-carbonitrile]		187 to 193 °C	
C=CCn1c(-c2ccc(N3CCCC3=O)cc2)c(C#N)c2ccc(OC)cc21 [Compound 938, 1-allyl-6-methoxy-2-[4-(2-oxopyrrolidin-1-yl)-phenyl]-1H-indole-3-carbonitrile]		147 to 148 °C	

Compound	IC50 (HCV replicon; [1])	melting point	also measured
ethanesulfonic acid [4-(3-cyano-6-difluoromethoxy-1-ethyl-1H-indol-2-yl)-phenyl]-amide [Compound 519]			IC50 (HCV replicon; read-out: Replicon IC50): < 0.5 µM
COc1ccc2c(C#N)c(-c3ccc(NC(=O)OC(C)C)cc3)n(C3CC3)c2c1 [Compound 1234, [4-(3-cyano-1-cyclopropyl-6-methoxyindol-2-yl)phenyl]carbamic acid isopropyl ester]		204 to 205 °C	
CCn1c(-c2ccc(NC(=O)NCCCl)cc2)c(C#N)c2ccc(OC)cc21 [Compound 442, 1-(2-chloroethyl)-3-[4-(3-cyano-1-ethyl-6-methoxy-1H-indol-2-yl)-phenyl]-urea]	> 2 µM		
CCOc1ccc2c(C#N)c(-c3ccc(N(CC)C(=O)OC4CCCC4)cc3)n(C3CCC3)c2c1 [Compound 1251, [4-(3-cyano-1-cyclobutyl-6-ethoxy-1H-indol-2-yl)-phenyl]-ethyl-carbamic acid cyclopentyl ester]		137 to 142 °C	
CCOc1ccc2c(C#N)c(-c3ccc(N(CC)CC)cc3)n(C3CCC3)c2c1 [Compound 1217, 1-Cyclobutyl-2-(4-diethylamino-phenyl)-6-ethoxy-1H-indole-3-carbonitrile]		135 to 141 °C	
CCn1c(C#Cc2ccc(NP(C)(C)=O)cc2)c(C#N)c2ccc(OC)cc21 [Compound 227, N-[4-(3-cyano-1-ethyl-6-methoxy-1H-indol-2-ylethynyl)-phenyl]-dimethylphosphinic amide]			IC50 (HCV replicon; read-out: Replicon IC50): 0.5 to 2 µM
CCOc1ccc2c(C#N)c(-c3ccc(NC(=O)OC(C)C4CC4)cc3)n(C3CCC3)c2c1 (racemic) [Compound 1147, rac-[4-(3-cyano-1-cyclobutyl-6-ethoxy-1H-indol-2-yl)-phenyl]-carbamic acid 1-cyclopropyl-ethyl ester]		154 to 158 °C	
CC(C)OC(=O)Nc1ccc(-c2c(C#N)c3ccc(OCCCn4cncn4)cc3n2C2CCC2)cc1 [Compound 1255, {4-[3-cyano-1-cyclobutyl-6-(3-[1,2,4]triazol-1-yl-propoxy)-1H-indol-2-yl]-phenyl}-carbamic acid isopropyl ester]		208 °C	
CCn1c(-c2ccc(NS(=O)(=O)CC)cc2)c(C#N)c2ccc(OC(F)(F)F)cc21 [Compound 881, ethanesulfonic acid [4-(3-cyano-1-ethyl-6-trifluoromethoxyindol-2-yl)phenyl]amide]		194 to 195 °C	
CCOC(=O)Nc1cccc(-c2c(C#N)c3ccc(OCCCN4CCCC4)cc3n2CC)c1 [Compound 530, {3-[3-cyano-1-ethyl-6-(3-pyrrolidin-1-yl-propoxy)-1H-indol-2-yl]-phenyl}-carbamic acid ethyl ester]			IC50 (HCV replicon; Hepatitis C virus, read-out: Replicon IC50): < 0.5 µM
CCn1c(-c2ccc(N3CCCS3(=O)=O)cc2)c(C#N)c2ccc(OC(F)(F)F)cc21 [Compound 903, 2-[4-(1,1-dioxidoisothiazolidin-2-yl)phenyl]-1-ethyl-6-(trifluoromethoxy)indole-3-carbonitrile]		230 to 232 °C	
CCOc1ccc2c(C#N)c(-c3ccc(NC(=O)N4CCOCC4)cc3)n(C3CCC3)c2c1 [Compound 1166, morpholine-4-carboxylic acid [4-(3-cyano-1-cyclobutyl-6-ethoxy-1H-indol-2-yl)-phenyl]-amide]		260 to 266 °C	
CCn1c(-c2ccc(N3CCNC3=O)cc2)c(C#N)c2ccc(OC)cc21 [Compound 771, 1-ethyl-6-methoxy-2-[4-(2-oxo-imidazolidin-1-yl)-phenyl]-1H-indole-3-carbonitrile]	< 0.5 µM		
CCn1cc(-c2nccs2)c2ccc(OC)cc21 [Compound 73, 1-ethyl-6-methoxy-3-thiazol-2-yl-1H-indole]	> 2 µM		
C=Cn1c(-c2ccc(NS(=O)(=O)CCCCl)cc2)c(C#N)c2ccc(OC)cc21 [Compound 636]			IC50 (HCV replicon; read-out: Replicon IC50): 0.5 to 2 µM
CCn1c(-c2ccc(N3CCOC3=O)cc2)c(C#N)c2ccc(OC(C)C)cc21 [Compound 638, 1-ethyl-6-isopropoxy-2-[4-(2-oxo-oxazolidin-3-yl)-phenyl]-1H-indole-3-carbonitrile]	> 2 µM		
CCn1c(-c2ccc(NC(=O)OC)cc2)c(C#N)c2ccc(OC(F)F)cc21 [Compound 1130, [4-(3-cyano-6-difluoromethoxy-1-ethyl-1H-indol-2-yl)-phenyl]-carbamic acid methyl ester]		177 to 178 °C	
N-(2-chloro-ethyl)-N′-[4-(3-cyano-1-ethyl-6-methoxy-1H-indol-2-yl)phenyl]sulfamide [Compound 724]			IC50 (HCV replicon; read-out: Replicon IC50): 0.5 to 2 µM
CCn1c(-c2ccc(NC(=O)C3CC3)cc2)c(C#N)c2ccc(OCCn3ccnc3)cc21 [Compound 1183, cyclopropanecarboxylic acid {4-[3-cyano-1-ethyl-6-(2-imidazol-1-yl-ethoxy)-1H-indol-2-yl]-phenyl}-amide]		202.3 to 205.9 °C	
